What was measured:
[1] = target: extracellular domains of PD-L1 (Homo sapiens (Human), UniProt Q9NZQ7); assay: PD-L1 dimerization (biochemical protein-protein interaction assay); details: PDL1-Eu and PDL1-A2, 25° C., 120 min
Protocol: Compounds were tested in biochemical protein-protein interaction assays to determine if they can specifically dimerize the extracellular domains of PD-L1. • (1) Dilute cpd 1:3 in succession in DMSO for each column for 10±0 pts (refer to dilution plate map) • (2) Transfer 0.2 μL cpds solution in each row to 384 assay plate using Echo, each column containing 2 replicates (refer to assay plate map). • (3) Add 20 μL prepared mixture include PDL1-Eu and PDL1-A2 solution to assay plate, centrifuge at 1000 rpm for 1 min. • (4) Incubate at 25° C. for 120 min. • (5) Read fluorescence signal on Envision 2104 plate reader. • (6) Read the Ratio (665 nm/615 nm) signal on Envision. • (7) Analyze the raw data using the equation (V. Data analysis)

PD-L1/CHO-K1 cells = PD-L1/CHO-K1 cells (Homo sapiens (Human), UniProt Q9NZQ7); assay: PD-L1 internalization (FACS, PD-L1/CHO-K1 cells); format: cell-based; details: % activation of PD-L1 internalization = 1 − PD-L1 signal; 17 hours incubation
Chain of PD-L1/CHO-K1 cells (Q9NZQ7 19-290): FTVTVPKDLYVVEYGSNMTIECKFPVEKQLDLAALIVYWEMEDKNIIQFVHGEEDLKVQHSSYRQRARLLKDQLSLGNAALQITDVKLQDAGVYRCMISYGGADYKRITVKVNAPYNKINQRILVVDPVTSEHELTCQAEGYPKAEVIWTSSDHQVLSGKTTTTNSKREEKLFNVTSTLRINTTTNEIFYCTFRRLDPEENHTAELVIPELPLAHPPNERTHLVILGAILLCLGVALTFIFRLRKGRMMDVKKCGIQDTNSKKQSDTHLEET
Summary of the method: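 PD-L1/CHO-K1 cells treated 17 h at 37 °C with compound (0.2% DMSO final), then surface PD-L1 stained with PE anti-CD274 and read by flow cytometry. Signal normalized to vehicle (100%) and unstained control (0%); internalization = 1 − normalized PD-L1 signal.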

Chain of extracellular domains of PD-L1 (Q9NZQ7 19-238): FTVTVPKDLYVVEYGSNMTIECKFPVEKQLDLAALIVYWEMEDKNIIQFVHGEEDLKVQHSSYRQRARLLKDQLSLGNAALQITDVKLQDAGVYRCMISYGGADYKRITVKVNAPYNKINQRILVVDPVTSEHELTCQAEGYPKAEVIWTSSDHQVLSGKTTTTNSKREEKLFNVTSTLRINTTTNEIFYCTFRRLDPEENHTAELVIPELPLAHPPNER

| EC50 [1] | Internalization (PD-L1/CHO-K1 cells) | SMILES |
| --- | --- | --- |
| 77.9 nM | 67.00% | O=C(O)[C@H](CO)NCCN1C(=O)COc2cc(-c3cccc(-c4cccc(-c5ccc6c(c5)OCC(=O)N6CCN[C@@H](CO)C(=O)O)c4Cl)c3Cl)ccc21 [Compound 465] |
|  | 98.10% | O=C1COc2cc(-c3cccc(-c4cccc(-c5ccc6c(c5)OCC(=O)N6C[C@H]5CCCN5)c4Cl)c3Cl)ccc2N1C[C@H]1CCCN1 [Compound 529] |

Reference: patent US20250340529A1, “Heterocyclic Compounds as Immunomodulators of PD-L1 Interactions” (Ascletis BioScience Co., Ltd, priority 2021, published 2025)
